Experimental data taken from patent US20060069132A1, “Azolecarboxamide herbicides” (priority 2004, published 2006).

What was measured:
[1] = system: large crabgrass; assay: Test A pre-/postemergence herbicide test; assay type: in vivo, Digitaria sanguinalis; conditions: for Plant response rating, Crabgrass, Large: Postemergence; for Crabgrass, Large plant response rating: Preemergence
Procedure, shortened: (§1)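 Plants are held in greenhouse about ten days after treatment, then compared with untreated controls and scored 0 (no effect) to 100 (complete control). Preemergence dosing is a directed soil spray on sown sandy loam; postemergence dosing is spray to runoff at 2–10 cm height.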

[2] = system: velvetleaf; assay: Test B pre-/postemergence herbicide test; assay type: in vivo, Abutilon theophrasti
Procedure, shortened: (§2)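 Response was scored visually 13 to 15 days after treatment against untreated greenhouse controls, 0 meaning no effect and 100 complete control. Formulations (solvent mixture plus surfactant) went onto soil after planting, onto foliage of 1- to 4-leaf plants, and onto 2-leaf plants in a flooded paddy set including rice and barnyardgrass.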

[3] = system: lambsquarters; assay: Test B pre-/postemergence herbicide test; assay type: in vivo, Chenopodium album
Procedure, shortened: as §2

[4] = system: Surinam grass; assay: Test B pre-/postemergence herbicide test; assay type: in vivo, Urochloa decumbens
Procedure, shortened: as §2

[5] = system: velvetleaf; assay: Test A pre-/postemergence herbicide test; assay type: in vivo, Abutilon theophrasti; conditions: for Velvetleaf plant response rating: Preemergence
Procedure, shortened: as §1

[6] = system: pigweed; assay: Test B pre-/postemergence herbicide test; assay type: in vivo, Amaranthus retroflexus
Procedure, shortened: as §2

[7] = system: barnyardgrass; assay: Test A pre-/postemergence herbicide test; assay type: in vivo, Echinochloa crus-galli; conditions: for Plant response rating, Barnyardgrass: Postemergence; for Barnyardgrass plant response rating: Preemergence
Procedure, shortened: as §1

[8] = system: barnyardgrass; assay: Test B flooded paddy test; assay type: in vivo, Echinochloa crus-galli; conditions: 1000 g ai/ha, visual rating, scale 0 to 100 (0 no effect, 100 complete control), 13 to 15 days
Procedure, shortened: (§3)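 Visual control ratings, 0–100 versus untreated controls, taken after 13 to 15 days in the greenhouse. Blackgrass received a postemergence spray at the 1- to 4-leaf stage (2–18 cm); ducksalad, umbrella sedge and barnyardgrass were flooded-paddy treated at 2 leaves.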

[9] = system: wheat; assay: Test B postemergence herbicide test; assay type: in vivo, Triticum aestivum; parameters: key to Wheat plant response rating: 0 = no effect, 100 = complete control; conditions: scale 0 (no effect) to 100 (complete control)
Procedure, shortened: (§4)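 Treated at 2-leaf (paddy) or 1–4-leaf, 2–18 cm (postemergence); greenhouse 13–15 d; visual score vs control, 0 none to 100 complete control; dash = not tested.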

[10] = system: large crabgrass; assay: Test B pre-/postemergence herbicide test; assay type: in vivo, Digitaria sanguinalis
Procedure, shortened: as §2

[11] = system: wild oat; assay: Test B postemergence herbicide test; assay type: in vivo, Avena fatua; conditions: scale 0 (no effect) to 100 (complete control)
Procedure, shortened: as §4

[12] = system: redroot pigweed; assay: Test A pre-/postemergence herbicide test; assay type: in vivo, Amaranthus retroflexus; conditions: for Plant response rating, Pigweed: Postemergence; for Pigweed plant response rating: Preemergence
Procedure, shortened: as §1

[13] = system: small flower umbrella sedge; assay: Test B flooded paddy test; assay type: in vivo, Cyperus difformis; conditions: 1000 g ai/ha, visual rating, scale 0 to 100 (0 no effect, 100 complete control), 13 to 15 days
Procedure, shortened: as §3

[14] = system: barnyardgrass; assay: Test B pre-/postemergence herbicide test; assay type: in vivo, Echinochloa crus-galli
Procedure, shortened: as §2

[15] = system: morningglory; assay: Test A pre-/postemergence herbicide test; assay type: in vivo, Ipomoea spp.; conditions: for Plant response rating, Morningglory: Postemergence; for Morningglory plant response rating: Preemergence
Procedure, shortened: as §1

[16] = system: ducksalad; assay: Test B flooded paddy test; assay type: in vivo, Heteranthera limosa; conditions: 1000 g ai/ha, visual rating, scale 0 to 100 (0 no effect, 100 complete control), 13 to 15 days
Procedure, shortened: as §3

[17] = system: giant foxtail; assay: Test B pre-/postemergence herbicide test; assay type: in vivo, Setaria faberi
Procedure, shortened: as §2

[18] = system: corn; assay: Test B pre-/postemergence herbicide test; assay type: in vivo, Zea mays
Procedure, shortened: as §2

[19] = system: rice; assay: Test B flooded paddy test; assay type: in vivo, Oryza sativa; conditions: 1000 g ai/ha, visual rating, scale 0 to 100 (0 no effect, 100 complete control), 13 to 15 days
Procedure, shortened: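 Postemergence plants were sprayed with formulated test chemicals at 2 to 18 cm height (1- to 4-leaf stage); paddy species were grown to the 2-leaf stage. After 13 to 15 days in a greenhouse, injury was rated visually against untreated controls on a 0–100 scale (0 = no effect, 100 = complete control).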

[20] = system: giant foxtail; assay: Test A pre-/postemergence herbicide test; assay type: in vivo, Setaria faberi; conditions: for Plant response rating, Foxtail, Giant: Postemergence; for Foxtail, Giant plant response rating: Preemergence
Procedure, shortened: as §1

[21] = system: cocklebur; assay: Test B pre-/postemergence herbicide test; assay type: in vivo, Xanthium strumarium
Procedure, shortened: as §2

[22] = system: rice; assay: Test B pre-/postemergence herbicide test; assay type: in vivo, Oryza sativa
Procedure, shortened: as §2

[23] = system: morningglory; assay: Test B pre-/postemergence herbicide test; assay type: in vivo, Ipomoea coccinea
Procedure, shortened: as §2

[24] = system: blackgrass; assay: Test B postemergence herbicide test; assay type: in vivo, Alopecurus myosuroides; conditions: scale 0 (no effect) to 100 (complete control)
Procedure, shortened: as §3

[25] = 500 g ai/ha, 0 to 100 scale, 0 no effect, 100 complete control
[26] = 2000 g ai/ha, 0 to 100 scale, 0 no effect, 100 complete control
[27] = 500 g ai/ha, visual rating, 0 to 100 scale (0 no effect, 100 complete control)
[28] = Postemergence, 500 g ai/ha, visual rating after 13 to 15 days, scale 0 (no effect) to 100 (complete control)
[29] = Preemergence, 500 g ai/ha, scale 0 to 100
[30] = postemergence, 125 g ai/ha, visual rating, scale 0 (no effect) to 100 (complete control)
[31] = preemergence, 125 g ai/ha, 0 to 100 scale, 0 is no effect, 100 is complete control
[32] = Postemergence, 500 g ai/ha, visual rating after 13 to 15 days
[33] = postemergence, 125 g ai/ha, visual rating

CCn1nc(C(C)(C)C)cc1C(=O)Nc1cccc2c1CNC2=O [Compound 52]
60: Barnyardgrass plant response rating [14, 29] | Foxtail, Giant plant response rating [17, 29] | Foxtail, Giant plant response rating [20, 26]
10: Velvetleaf plant response rating [2, 30] | Plant response rating, Pigweed [6, 28] | Plant response rating, Crabgrass, Large [10, 28] | Plant response rating, Oat, Wild [11, 32] | Plant response rating, Barnyardgrass [14, 31] | Morningglory plant response rating [15, 26] | Plant response rating, Foxtail, Giant [17, 28] | Foxtail, Giant plant response rating [17, 30] | Plant response rating, Foxtail, Giant [17, 31] | Corn plant response rating [18, 30] | Cocklebur plant response rating [21, 29]
15: Velvetleaf plant response rating [5, 27]
55: Plant response rating, Barnyardgrass [7, 26]
90: Crabgrass, Large plant response rating [1, 26] | Lambsquarters plant response rating [3, 29] | Pigweed plant response rating [6, 29] | Barnyardgrass plant response rating [7, 26] | Crabgrass, Large plant response rating [10, 29] | Pigweed plant response rating [12, 27] | Pigweed plant response rating [12, 26]
70: Crabgrass, Large plant response rating [1, 27]
20: Plant response rating, Crabgrass, Large [1, 26] | Plant response rating, Velvetleaf [2, 28] | Velvetleaf plant response rating [2, 29] | Plant response rating, Velvetleaf ([5]; Postemergence, 2000 g ai/ha, 0 to 100 scale, 0 no effect, 100 complete control) | Barnyardgrass plant response rating [8] | Plant response rating, Crabgrass, Large [10, 31] | Ducksalad plant response rating [16] | Foxtail, Giant plant response rating [20, 27] | Cocklebur plant response rating [21, 30]
35: Plant response rating, Pigweed [12, 26]
30: Surinam Grass plant response rating [4, 29] | Plant response rating, Pigweed [12, 25]
50: Velvetleaf plant response rating [5, 26]
0: Plant response rating, Crabgrass, Large [1, 25] | Plant response rating, Velvetleaf [2, 31] | Lambsquarters plant response rating [3, 30] | Plant response rating, Lambsquarters [3, 31] | Plant response rating, Surinam Grass [4, 28] | Surinam Grass plant response rating [4, 30] | Plant response rating, Surinam Grass [4, 31] | Pigweed plant response rating [6, 30] | Plant response rating, Pigweed [6, 31] | Plant response rating, Wheat [9, 32] | Wheat plant response rating [9, 33] | Crabgrass, Large plant response rating [10, 30] | Oat, Wild plant response rating [11, 33] | Plant response rating, Barnyardgrass [14, 28] | Barnyardgrass plant response rating [14, 30] | Plant response rating, Morningglory [15, 25] | Plant response rating, Morningglory [15, 26] | Morningglory plant response rating [15, 27] | Corn plant response rating [18, 29] | Plant response rating, Corn [18, 31] | Rice plant response rating [19] | Plant response rating, Cocklebur [21, 31] | Plant response rating, Rice [22, 31] | Plant response rating, Morningglory [23, 28] | Morningglory plant response rating [23, 29] | Morningglory plant response rating [23, 30] | Plant response rating, Morningglory [23, 31] | Plant response rating, Blackgrass [24, 32] | Blackgrass plant response rating [24, 33]
25: Plant response rating, Barnyardgrass [7, 25] | Barnyardgrass plant response rating [7, 27] | Plant response rating, Foxtail, Giant [20, 25] | Plant response rating, Foxtail, Giant [20, 26]
40: Sedge, Umbrella plant response rating [13] | Plant response rating, Corn [18, 28] | Plant response rating, Cocklebur [21, 28]
80: Plant response rating, Lambsquarters [3, 28] | Rice plant response rating [22, 29]
